target: human RORgammaT-Ligand Binding Domain (LBD) (Homo sapiens (Human), UniProt P51449); assay: RORγ-Ligand Binding Domain TR-FRET assay (co-activator peptide SRC1_2 recruitment); assay type: biochemical; conditions: HIS-tagged RORγ-LBD 3 nM, biotinylated SRC1 LXXLL peptide 100 nM, incubated overnight at 4° C., 665 nm/615 nm signal quotient; read-out: Fret IC50
Description: Activation of RORgammaT activity can be measured using, e.g., biochemical TR-FRET assay. In such an assay, interaction of cofactor-derived peptides with human RORgammaT-Ligand Binding Domain (LBD) can be measured.
To identify novel antagonists of RORgammaT, an assay was developed which employs the interaction of RORgammaT with its co-activator peptide SRC1_2. […] The RORγ-Ligand Binding Domain TR-FRET Assay was run according to the following protocol.
HIS-tagged RORγ-LBD protein was expressed in SF9 cells using a baculovirus expression system. The RORγ-LBD protein was purified by glutathione sepharose chromatography. Separately, SF9 cells not expressing any recombinant protein were lysed and the lysate was added to the purified RORγ-LBD at 0.25 μl lysate (from 10,000 SF9 cells)/nM purified protein. The mixture was then diluted in assay buffer (50 mM Tris pH 7.0, 50 mM KCl, 1 mM EDTA, 0.1 mM DTT) to obtain RORγ-LBD final concentration of 3 nM in 384-well assay plate.
Compounds to be tested were injected to the assay plate using Acoustic Droplet Ejection technology by Echo 550 liquid handler (Labcyte, Calif.).

human RORgammaT-Ligand Binding Domain (LBD), sequence (P51449 269-508): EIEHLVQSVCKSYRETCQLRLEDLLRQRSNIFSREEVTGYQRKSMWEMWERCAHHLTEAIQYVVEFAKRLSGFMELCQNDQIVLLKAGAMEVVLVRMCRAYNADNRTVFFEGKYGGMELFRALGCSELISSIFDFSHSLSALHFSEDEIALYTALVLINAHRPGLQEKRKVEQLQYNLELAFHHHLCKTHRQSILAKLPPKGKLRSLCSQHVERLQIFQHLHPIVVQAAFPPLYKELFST

Structure (SMILES) | IC50 [nM]
C[C@@H]1CN(C(=O)c2ccc3c(C4=CCC(C(=O)O)CC4)nn(C(=O)c4c(Cl)cccc4C(F)(F)F)c3c2)C[C@H](C)O1 (stereo partly drawn) [Example 4M, 4-(1-(2-chloro-6-(trifluoromethyl)benzoyl)-6-((2R,6S)-2,6-dimethylmorpholine-4-carbonyl)-1H-indazol-3-yl)cyclohex-3-enecarboxylic acid] | 21
CN1CCN(C(=O)c2ccc3c(C4=CCC(C(=O)O)CC4)nn(C(=O)c4c(Cl)cccc4C(F)(F)F)c3c2)CC1=O (stereo not shown) [Example 4N, 4-(1-(2-chloro-6-(trifluoromethyl)benzoyl)-6-(4-methyl-3-oxopiperazine-1-carbonyl)-1H-indazol-3-yl)cyclohex-3-enecarboxylic acid] | 3
C[C@H]1COCCN1C(=O)c1ccc2c(C3=CCC(C(=O)O)CC3)nn(C(=O)c3c(Cl)cccc3C(F)(F)F)c2c1 (stereo partly drawn) [Example 4O, 4-(1-(2-chloro-6-(trifluoromethyl)benzoyl)-6-((S)-3-methylmorpholinc-4-carbonyl)-1H-indazol-3-yl)cyclohex-3-enecarboxylic acid] | 308
CN(C(=O)c1ccc2c(C3=CCC(C(=O)O)CC3)nn(C(=O)c3c(Cl)cccc3C(F)(F)F)c2c1)C1CCOCC1 (stereo not shown) [Example 4P, 4-(1-(2-chloro-6-(trifluoromethyl)benzoyl)-6-(methyl(tetrahydro-2H-pyran-4-yl)carbamoyl)-1H-indazol-3-yl)cyclohex-3-enecarboxylic acid] | 41
C[C@@H]1COCCN1C(=O)c1ccc2c(C3=CCC(C(=O)O)CC3)nn(C(=O)c3c(Cl)cccc3C(F)(F)F)c2c1 (stereo partly drawn) [Example 4Q, 4-(1-(2-chloro-6-(trifluoromethyl)benzoyl)-6-((R)-3-methylmorpholine-4-carbonyl)-1H-indazol-3-yl)cyclohex-3-enecarboxylic acid] | 380
C[C@H]1CN(C(=O)c2ccc3c(C4=CCC(C(=O)O)CC4)nn(C(=O)c4c(Cl)cccc4C(F)(F)F)c3c2)CCO1 (stereo partly drawn) [Example 4R, 4-(1-(2-chloro-6-(trifluoromethyl)benzoyl)-6-((S)-2-methylmorpholine-4-carbonyl)-1H-indazol-3-yl)cyclohex-3-enecarboxylic acid] | 21
CN(CCO)C(=O)c1ccc2c(C3=CCC(C(=O)O)CC3)nn(C(=O)c3c(Cl)cccc3C(F)(F)F)c2c1 (stereo not shown) [Example 4S, 4-(1-(2-chloro-6-(trifluoromethyl)benzoyl)-6-((2-hydroxyethyl)(methyl)carbamoyl)-1H-indazol-3-yl)cyclohex-3-enecarboxylic acid] | 40
CC(C)NC(=O)c1ccc2c(C3=CCC(C(=O)O)CC3)nn(C(=O)c3c(Cl)cccc3C(F)(F)F)c2c1 (stereo not shown) [Example 4T, 4-(1-(2-chloro-6-(trifluoromethyl)benzoyl)-6-(isopropylcarbamoyl)-1H-indazol-3-yl)cyclohex-3-enecarboxylic acid] | 1120
CC(C)N(C)C(=O)c1ccc2c(C3=CCC(C(=O)O)CC3)nn(C(=O)c3c(Cl)cccc3C(F)(F)F)c2c1 (stereo not shown) [Example 4U, 4-(1-(2-chloro-6-(trifluoromethyl)benzoyl)-6-(isopropyl(methyl)carbamoyl)-1H-indazol-3-yl)cyclohex-3-enecarboxylic acid] | 164
COCCN(C)C(=O)c1ccc2c(C3=CCC(C(=O)O)CC3)nn(C(=O)c3c(Cl)cccc3C(F)(F)F)c2c1 (stereo not shown) [Example 4V, 4-(1-(2-chloro-6-(trifluoromethyl)benzoyl)-6-((2-methoxyethyl)(methyl)carbamoyl)-1H-indazol-3-yl)cyclohex-3-enecarboxylic acid] | 31
O=C(O)C1CC=C(c2nn(C(=O)c3c(Cl)cccc3C(F)(F)F)c3cc(C(=O)N4CC(O)C4)ccc23)CC1 (stereo not shown) [Example 4W, 4-(1-(2-chloro-6-(trifluoromethyl)benzoyl)-6-(3-hydroxyazetidine-1-carbonyl)-1H-indazol-3-yl)cyclohex-3-enecarboxylic acid] | 3
O=C(O)C1CC=C(c2nn(C(=O)c3c(Cl)cccc3C(F)(F)F)c3cc(C(=O)N4CC(F)C4)ccc23)CC1 (stereo not shown) [Example 4X, 4-(1-(2-chloro-6-(trifluoromethyl)benzoyl)-6-(3-fluoroazetidine-1-carbonyl)-1H-indazol-3-yl)cyclohex-3-enecarboxylic acid] | 3
O=C(O)C1CC=C(c2nn(C(=O)c3c(Cl)cccc3C(F)(F)F)c3cc(C(=O)N4CCCCC4)ccc23)CC1 (stereo not shown) [Example 4Y, 4-(1-(2-chloro-6-(trifluoromethyl)benzoyl)-6-(piperidine-1-carbonyl)-1H-indazol-3-yl)cyclohex-3-enecarboxylic acid] | 159
CNCC(CO)OC(=O)c1ccc2c(C3=CCC(C(=O)O)CC3)nn(C(=O)c3c(Cl)cccc3C(F)(F)F)c2c1 (stereo not shown) [Example 4Z, 4-(1-(2-chloro-6-(trifluoromethyl)benzoyl)-6-(((1-hydroxy-3-(methylamino)propan-2-yl)oxy)carbonyl)-1H-indazol-3-yl)cyclohex-3-enecarboxylic acid] | 258
O=C(O)C1CC=C(c2cn(C(=O)c3c(Cl)cccc3C(F)(F)F)c3cccc(F)c23)CC1 (stereo not shown) [Example 5A, 4-(1-(2-chloro-6-(trifluoromethyl)benzoyl)-4-fluoro-1H-indol-3-yl)cyclohex-3-enecarboxylic acid] | 4
O=C(O)C1CCC(c2nn(C(=O)c3c(Cl)cccc3C(F)(F)F)c3cccc(F)c23)=CC1O (stereo not shown) [Example 6A, 4-(1-(2-chloro-6-(trifluoromethyl)benzoyl)-4-fluoro-1H-indazol-3-yl)-2-hydroxycyclohex-3-enecarboxylic acid] | 2
O=C(O)C1CC=C(c2nn(C(=O)c3c(Cl)cccc3C(F)(F)F)c3cccc(F)c23)CC1O (stereo not shown) [Example 6B, 4-(1-(2-chloro-6-(trifluoromethyl)benzoyl)-4-fluoro-1H-indazol-3-yl)-6-hydroxycyclohex-3-enecarboxylic acid] | 15

The next lines start with the values.

IC50 [nM] | Structure (SMILES)
1880 | CC1(c2nn(C(=O)c3c(Cl)cccc3C(F)(F)F)c3cccc(F)c23)CCC(C(=O)O)CC1 (stereo not shown) [Example 7A, 4-(1-(2-chloro-6-(trifluoromethyl)benzoyl)-4-fluoro-1H-indazol-3-yl)-4-methylcyclohexanecarboxylic acid]
663 | C[C@]1(c2nn(C(=O)c3c(Cl)cccc3C(F)(F)F)c3cccc(F)c32)CC[C@H](C(=O)O)CC1 [Example 7B, (trans)-4-(1-(2-chloro-6-(trifluoromethyl)benzoyl)-4-fluoro-1H-indazol-3-yl)-4-methyl cyclohexanecarboxylic acid]
872 | C[C@]1(c2nn(C(=O)c3c(Cl)cccc3C(F)(F)F)c3cccc(F)c32)CC[C@@H](C(=O)O)CC1 [Example 7C, (cis)-4-(1-(2-chloro-6-(trifluoromethyl)benzoyl)-4-fluoro-1H-indazol-3-yl)-4-methylcyclohexanecarboxylic acid]
50 | C[C@]1(C(=O)O)CC[C@H](c2nn(C(=O)c3c(Cl)cccc3C(F)(F)F)c3cccc(F)c32)CC1 [Example 9A, (trans)-4-(1-(2-chloro-6-(trifluoromethyl)benzoyl)-4-fluoro-1H-indazol-3-yl)-1-methylcyclohexanecarboxylic acid]
5020 | C[C@]1(C(=O)O)CC[C@@H](c2nn(C(=O)c3c(Cl)cccc3C(F)(F)F)c3cccc(F)c32)CC1 [Example 9B, (cis)-4-(1-(2-chloro-6-(trifluoromethyl)benzoyl)-4-fluoro-1H-indazol-3-yl)-1-methylcyclohexanecarboxylic acid]
207 | O=C(c1c(Cl)cccc1C(F)(F)F)n1nc([C@H]2CC[C@H](C(=O)O)CC2)c2ncccc21 [Example 11A, (trans)-4-(1-(2-chloro-6-(trifluoromethyl)benzoyl)-1H-pyrazolo[4,3-b]pyridin-3-yl)cyclohexanecarboxylic acid]
10000 | O=C(c1c(Cl)cccc1C(F)(F)F)n1nc([C@H]2CC[C@@H](C(=O)O)CC2)c2ncccc21 [Example 11B, (cis)-4-(1-(2-chloro-6-(trifluoromethyl)benzoyl)-1H-pyrazolo[4,3-b]pyridin-3-yl)cyclohexanecarboxylic acid]
2470 | O=C(O)C1CCC(O)(c2nn(C(=O)c3c(Cl)cccc3C(F)(F)F)c3cccc(F)c23)CC1 (stereo not shown) [Example 13A, 4-(1-(2-chloro-6-(trifluoromethyl)benzoyl)-4-fluoro-1H-indazol-3-yl)-4-hydroxycyclohexanecarboxylic acid]

Source: US9487490B2, “3-cyclohexenyl and cyclohexyl substituted indole and indazole compounds as RORgammaT inhibitors and uses thereof” (Merck Sharp & Dohme Corp., priority 2012, dated 2016)
